# Measured values reported in patent US5935597A, “Drug delivery devices and methods for treatment of viral and microbial infections and wasting syndromes” (Cryopreservation Technologies CC, priority 1995, dated 1999).
# Columns and labels:
# [1] = Example 8 pilot study: body weight; assay type: in vivo, human
# Description: (§1) A pilot study was conducted to evaluate the efficacy of transdermal DMF in the treatment of patients infected with HIV. Informed consent was obtained from each patient. Seropositive status was verified by Western blot using a commercial kit for detecting antibodies to p24 (Abbott Diagnostics) and the presence of HIV-1 was documented by quantitative PCR using a commercial kit (Roche Amplicor).
# (§2) Dermal patches 9 cm in diameter were used within 12 hours of manufacture. […] The patches were visually inspected to verify the absence of leakage and were weighed on an analytical balance to verify less than 10% deviation from a total mass of 8.153 g. The patches were applied to the skin of the forearm and secured with Elastoplast™ bandages. Either one or two patches were used for the initial dose, as determined from the predicted skin transfer rate of 9.4 mg/cm^2 /hr and the patient's body weight.
# (§3) A staged dose of DMF was used, with two-hourly blood and urine sampling to determine peak plasma DMF levels. […] Initial evaluation included daily determination of:
# a) vital signs and body weight;
# [2] = Absorption of liquid DMF through human skin; assay type: in vivo; conditions: two patches of diameter 9 cm, 127 cm^2 skin
# Description: For transdermal administration of a polar compound, the rate of absorption is determined by the skin of the subject. […] Accordingly, the desired rate of absorption may be achieved by controlling the surface area of the skin exposed to the drug, as by determining the area of each patch and the number of patches applied to the skin.
# [3] = system: virus particles, e.g. the capsid; reverse transcriptase; protease; test: In vitro tests of DMF on virus particles
# [4] = cited from earlier work
# [5] = Example 8 pilot study: adverse effects and liver enzymes; assay type: in vivo, human
# Description: as §1, §2, §3
# b) serum urea, creatinine, glucose, sodium, potassium, ALT, AST, alkaline phosphatase and total bilirubin;
# malignant cells = conditions: cells treated in vitro, then inoculated into nude mice; cited from earlier work
structure (smiles),measurement,setting,value
"CN(C)C=O [DMF, N,N'-dimethylformamide]",body weight,"[1]; Patient 1, after 7 weeks, from 74.2",100 kg
same,body weight,"[1]; Patient 2, after 9 weeks, from 58.4",63.0 kg
same,body weight,"[1]; Patient 3, after 10 weeks, from 81.9",96.0 kg
same,body weight,"[1]; Patient 4, after 18 weeks, from 81.5",90.4 kg
same,body weight,"[1]; Patient 5, after 19 weeks, from 75.4",84.6 kg
same,body weight,"[1]; Patient 6, after 5 weeks, from 56.0",58.0 kg
same,body weight,"[1]; Patient 7, after 9 treatments, from 46.5",49.0 kg
same,body weight,"[1]; Patient 8, after 8 weeks, from 48.1",52.2 kg
same,weight gain,[1]; all patients,All the patients gained weight
same,absorption rate,[2],about 1.2 g of DMF per hour
same,effect on virus particles,[3]; in vitro,"it appears that the solvent properties of DMF dissolve the virus particles, e.g. the capsid"
same,apparent mode of action,[3]; it appears as if,acts as at least one of a reverse transcriptase inhibitor and a protease inhibitor
same,acute toxicity,"[4]; dermal, oral and inhalation","low acute dermal, oral and inhalation toxicity"
same,hepatic toxicity,[4]; in vivo,reversible hepatic damage
same,mutagenicity and carcinogenicity,[4]; in vivo,not thought to be a mutagen or a carcinogen
same,skin and eye irritation,[4]; in vivo,mild to moderate skin and eye irritant
same,skin sensitization,[4]; in vivo,no indication of skin sensitizing properties
same,teratogenicity,[4]; in vivo,teratogenic
same,maximum elevation of liver enzymes,[5]; four patients with transient elevation,three
same,local skin irritation at the area of application,"[5]; most patients, after removal of the patches",mild local skin irritation
same,appearance of skin at the application site,"[5]; most patients, probably due to intense hydration under the patch",maculopapular appearance
same,nausea,"[5]; most patients, usually on day three after treatment",mild transient nausea
same,patients with transient elevation of liver enzymes,"[5]; of 8 patients, in most cases returned to pre-treatment levels before next dose",Four
same,blistering,"[5]; one case, resolved within 24 hours",slight blistering
same,nausea,[5]; one patient,moderate transient nausea
same,tumorigenicity,malignant cells,reduce their tumorigenicity
